Experimental data taken from patent US10676477B2, “Factor XIa macrocycle inhibitors bearing a non-aromatic P2' group” (BRISTOL-MYERS SQUIBB COMPANY, priority 2015, dated 2020).
Where a name gives a salt, the structure may show the parent alone.

Experiments:
human Factor XIa = molecular target: T1, human Factor XIa (Homo sapiens, UniProt P03951); test: Factor XIa enzyme inhibition assay (chromogenic substrate S-2366), Ki; type: biochemical; conditions: purified human Factor XIa, substrate S-2366, pH 7.4
T1 construct: purchased Haematologic Technologies
Protocol: (§1) The effectiveness of compounds of the present invention as inhibitors of the coagulation Factors XIa, VIIa, IXa, Xa, XIIa, plasma kallikrein chymotrypsin, trypsin, or thrombin, can be determined using a relevant purified serine protease, respectively, and an appropriate synthetic substrate. The rate of hydrolysis of the chromogenic or fluorogenic substrate by the relevant serine protease was measured both in the absence and presence of compounds of the present invention. […] A decrease in the rate of absorbance or fluorescence change in the presence of inhibitor is indicative of enzyme inhibition. Such methods are known to one skilled in the art. The results of this assay are expressed as the inhibitory constant, Ki.
Factor XIa determinations were made in 50 mM HEPES buffer at pH 7.4 containing 145 mM NaCl, 5 mM KCl, and 0.1% PEG 8000 (polyethylene glycol; JT Baker or Fisher Scientific). Determinations were made using purified human Factor XIa at a final concentration of 25-200 pM (Haematologic Technologies) and the synthetic substrate S-2366 (pyroGlu-Pro-Arg-pNA; CHROMOGENIX® or AnaSpec) at a concentration of 0.0002-0.001 M.
(§2) The Michaelis constant, Km, for substrate hydrolysis by each protease, was determined at 25° C. or 37° C. in the absence of inhibitor. Values of Ki were determined by allowing the protease to react with the substrate in the presence of the inhibitor. Reactions were allowed to go for periods of 20-180 minutes (depending on the protease) and the velocities (rate of absorbance or fluorescence change versus time) were measured. The following relationships were used to calculate Ki values: (Vmax*S)/(Km+S) (vo−vs)/vs=I/(Ki*(1+S/Km)) for a competitive inhibitor with one binding site; or vs/vo=A+((B−A)/(1+(IC50/(I)^n)); and Ki=IC50/(1+S/Km) for a competitive inhibitor where: […]

human plasma kallikrein = molecular target: T2, human plasma kallikrein (Homo sapiens, UniProt P03952); test: Plasma kallikrein enzyme inhibition assay (chromogenic substrate S-2302), Ki; type: biochemical; conditions: purified human plasma kallikrein, substrate S-2302, pH 7.5
T2 construct: purchased Enzyme Research Laboratories
Protocol: as §1
Plasma kallikrein determinations were made in 0.1 M sodium phosphate buffer at a pH of 7.5 containing 0.1-0.2 M sodium chloride and 0.5% PEG 8000. Determinations were made using purified human plasma kallikrein (Enzyme Research Laboratories) at a final assay concentration of 200 pM and the synthetic substrate S-2302 (H-(D)-Pro-Phe-Arg-pNA; CHROMOGENIX®) at a concentration of 0.00008-0.0004 M.
as §2

T1 sequence (P03951 388-625 limits assumed): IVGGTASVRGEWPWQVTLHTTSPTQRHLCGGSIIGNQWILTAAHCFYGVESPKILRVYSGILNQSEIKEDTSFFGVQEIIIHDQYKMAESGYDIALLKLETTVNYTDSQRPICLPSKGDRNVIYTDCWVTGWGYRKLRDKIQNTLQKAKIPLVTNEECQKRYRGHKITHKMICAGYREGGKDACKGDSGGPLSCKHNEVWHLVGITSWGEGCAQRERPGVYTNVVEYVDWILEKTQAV
T1 sequence (P03951 19-387 partner limits assumed): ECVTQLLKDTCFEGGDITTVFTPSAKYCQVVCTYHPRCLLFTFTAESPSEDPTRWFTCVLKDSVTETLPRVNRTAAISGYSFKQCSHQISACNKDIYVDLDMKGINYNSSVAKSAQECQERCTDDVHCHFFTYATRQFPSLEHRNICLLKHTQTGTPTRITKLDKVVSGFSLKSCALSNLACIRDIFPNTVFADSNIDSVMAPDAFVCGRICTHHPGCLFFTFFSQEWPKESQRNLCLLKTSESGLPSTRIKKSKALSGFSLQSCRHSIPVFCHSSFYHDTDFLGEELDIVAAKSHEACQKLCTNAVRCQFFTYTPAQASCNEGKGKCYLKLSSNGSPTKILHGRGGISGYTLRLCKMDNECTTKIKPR
T2 sequence (P03952 391-638 limits assumed): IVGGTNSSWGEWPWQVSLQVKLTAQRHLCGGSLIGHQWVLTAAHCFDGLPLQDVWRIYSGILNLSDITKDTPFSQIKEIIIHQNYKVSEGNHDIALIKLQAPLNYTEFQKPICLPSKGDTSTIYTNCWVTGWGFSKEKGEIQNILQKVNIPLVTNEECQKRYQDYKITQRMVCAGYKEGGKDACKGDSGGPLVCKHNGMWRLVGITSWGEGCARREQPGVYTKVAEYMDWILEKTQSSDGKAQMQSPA
T2 sequence (P03952 20-390 partner limits assumed): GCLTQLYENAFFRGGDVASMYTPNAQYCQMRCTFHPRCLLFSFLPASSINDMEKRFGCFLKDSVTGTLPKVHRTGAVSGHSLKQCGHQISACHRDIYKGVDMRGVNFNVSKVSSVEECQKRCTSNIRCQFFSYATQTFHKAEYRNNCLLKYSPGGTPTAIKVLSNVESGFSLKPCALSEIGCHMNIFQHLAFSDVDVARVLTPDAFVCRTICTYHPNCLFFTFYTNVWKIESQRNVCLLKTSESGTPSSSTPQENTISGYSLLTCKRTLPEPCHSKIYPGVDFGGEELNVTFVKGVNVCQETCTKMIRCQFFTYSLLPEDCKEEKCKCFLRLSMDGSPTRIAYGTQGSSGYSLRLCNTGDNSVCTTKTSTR

Cc1c(C(=O)N[C@H]2CCCCCNC(=O)[C@H]3CN(C(=O)OC(C)(C)C)CCN3c3cccc2c3)cnn1-c1cccc(Cl)c1F [Example 18, tert-butyl (7R,15S)-15-[1-(3-chloro-2-fluorophenyl)-5-methyl-1H-pyrazole-4-amido]-8-oxo-2,5,9-triazatricyclo[14.3.1.0^2,7]icosa-1(20),16,18-triene-5-carboxylate, trifluoromethylacetate]
Ki (human Factor XIa): 3310 nM
Ki (human plasma kallikrein): 3830 nM

CC(C)(C)OC(=O)N1CCN2c3cccc(c3)[C@@H](n3cnc(-c4c(-n5cc(Cl)nn5)ccc(Cl)c4F)cc3=O)CCCCCNC(=O)[C@H]2C1 [Example 19, tert-butyl (7R,15S)-15-{4-[3-chloro-6-(4-chloro-1H-1,2,3-triazol-1-yl)-2-fluorophenyl]-6-oxo-1,6-dihydropyrimidin-1-yl}-8-oxo-2,5,9-triazatricyclo[14.3.1.0^2,7]icosa-(20),16,18-triene-5-carboxylate trifluoromethylacetate]
Ki (human Factor XIa): 5 nM
Ki (human plasma kallikrein): 345 nM

Cc1c(C(=O)N[C@H]2CCCCCNC(=O)[C@H]3CNCCN3c3cccc2c3)cnn1-c1cccc(Cl)c1F [Example 20, 1-(3-chloro-2-fluorophenyl)-5-methyl-N-[(7R,15S)-8-oxo-2,5,9-triazatricyclo[14.3.1.0^2,7]icosa-1(20),16,18-trien-15-yl]-1H-pyrazole-4-carboxamide hydrochloride]
Ki (human Factor XIa): 1310 nM
Ki (human plasma kallikrein): 2550 nM

COC(=O)N1CCN2c3cccc(c3)[C@@H](NC(=O)c3cnn(-c4cccc(Cl)c4F)c3C)CCCCCNC(=O)[C@H]2C1 [Example 21, methyl (7R,15S)-15-[1-(3-chloro-2-fluorophenyl)-5-methyl-1H-pyrazole-4-amido]-8-oxo-2,5,9-triazatricyclo[14.3.1.0^2,7]icosa-1(20),16,18-triene-5-carboxylate, trifluoromethyl acetate]
Ki (human Factor XIa): 1060 nM
Ki (human plasma kallikrein): 9170 nM

COC(=O)N1CCN2c3cccc(c3)[C@@H](N3CCC(c4cc(Cl)ccc4-n4cc(Cl)nn4)=CC3=O)CCCCCNC(=O)[C@H]2C1 [Example 22, methyl (7R,15S)-15-{4-[5-chloro-2-(4-chloro-1H-1,2,3-triazol-1-yl)phenyl]-6-oxo-1,2,3,6-tetrahydropyridin-1-yl}-8-oxo-2,5,9-triazatricyclo[14.3.1.0^2,7]icosa-1(20),16,18-triene-5-carboxylate trifluoromethyl acetate]
Ki (human Factor XIa): 5 nM
Ki (human plasma kallikrein): 189 nM

COC(=O)NC[C@H]1Nc2cccc(c2)[C@@H](n2cnc(-c3cc(Cl)ccc3-n3cc(Cl)nn3)cc2=O)CCCCCNC1=O [Example 23, methyl N-{[(3R,11S)-11-{4-[5-chloro-2-(4-chloro-1H-1,2,3-triazol-1-yl)phenyl]-6-oxo-1,6-dihydropyrimidin-1-yl}-4-oxo-2,5-diazabicyclo[10.3.1]hexadeca-1(16),12,14-trien-3-yl]methyl}carbamate trifluoromethyl acetate]
Ki (human Factor XIa): 27 nM
Ki (human plasma kallikrein): 2720 nM

O=C(NC[C@H]1Nc2cccc(c2)[C@@H](n2cnc(-c3cc(Cl)ccc3-n3cc(Cl)nn3)cc2=O)CCCCCNC1=O)c1cccnc1 [Example 24, N-{[(3R,11S)-11-{4-[5-chloro-2-(4-chloro-1H-1,2,3-triazol-1-yl)phenyl]-6-oxo-1,6-dihydropyrimidin-1-yl}-4-oxo-2,5-diazabicyclo[10.3.1]hexadeca-1(16),12,14-trien-3-yl]methyl}pyridine-3-carboxamide trifluoromethylacetate]
Ki (human Factor XIa): 62 nM
Ki (human plasma kallikrein): 5200 nM

O=C1CN2c3cccc(c3)[C@@H](n3cnc(-c4cc(Cl)ccc4-n4cc(Cl)nn4)cc3=O)CCCCCNC(=O)C2CN1 (stereo partly drawn) [Example 25, (15S)-15-{4-[5-chloro-2-(4-chloro-1H-1,2,3-triazol-1-yl)phenyl]-6-oxo-1,6-dihydropyrimidin-1-yl}-2,5,9-triazatricyclo[14.3.1.0^2,7]icosa-1(20),16,18-triene-4,8-dione]
Ki (human Factor XIa): 51 nM
Ki (human plasma kallikrein): 6750 nM

CC(C)(C)OC(=O)NCC[C@H]1Nc2cccc(c2)[C@@H](n2cnc(-c3cc(Cl)ccc3-n3cc(Cl)nn3)cc2=O)CCCCCNC1=O [Example 26, tert-butyl N-{2-[(3R,11S)-11-{4-[5-chloro-2-(4-chloro-1H-1,2,3-triazol-1-yl)phenyl]-6-oxo-1,6-dihydropyrimidin-1-yl}-4-oxo-2,5-diazabicyclo[10.3.1]hexadeca-1(16),12,14-trien-3-yl]ethyl}carbamate trifluoromethylacetate]
Ki (human Factor XIa): 24 nM
Ki (human plasma kallikrein): 430 nM

NCC[C@H]1Nc2cccc(c2)[C@@H](n2cnc(-c3cc(Cl)ccc3-n3cc(Cl)nn3)cc2=O)CCCCCNC1=O [Example 27, (3R,11S)-3-(2-aminoethyl)-11-{4-[5-chloro-2-(4-chloro-1H-1,2,3-triazol-1-yl)phenyl]-6-oxo-1,6-dihydropyrimidin-1-yl}-2,5-diazabicyclo[10.3.1]hexadeca-1(16),12,14-trien-4-one hydrochloride]
Ki (human Factor XIa): 871 nM
Ki (human plasma kallikrein): 14000 nM

COC(=O)NCC[C@H]1Nc2cccc(c2)[C@@H](n2cnc(-c3cc(Cl)ccc3-n3cc(Cl)nn3)cc2=O)CCCCCNC1=O [Example 28, methyl N-{2-[(3R,11S)-11-{4-[5-chloro-2-(4-chloro-1H-1,2,3-triazol-1-yl)phenyl]-6-oxo-1,6-dihydropyrimidin-1-yl}-4-oxo-2,5-diazabicyclo[10.3.1]hexadeca-1(16),12,14-trien-3-yl]ethyl}carbamate trifluoromethyl acetate]
Ki (human Factor XIa): 5 nM
Ki (human plasma kallikrein): 83 nM

O=C(NCC[C@H]1Nc2cccc(c2)[C@@H](n2cnc(-c3cc(Cl)ccc3-n3cc(Cl)nn3)cc2=O)CCCCCNC1=O)c1ccn(C(F)F)n1 [Example 29, N-{2-[(3R,11S)-11-{4-[5-chloro-2-(4-chloro-1H-1,2,3-triazol-1-yl)phenyl]-6-oxo-1,6-dihydropyrimidin-1-yl}-4-oxo-2,5-diazabicyclo[10.3.1]hexadeca-1(16),12,14-trien-3-yl]ethyl}-1-(difluoromethyl)-1H-pyrazole-3-carboxamide trifluoromethyl acetate]
Ki (human Factor XIa): 5 nM
Ki (human plasma kallikrein): 49 nM

COC(=O)NCC[C@@H]1Nc2cccc(c2)[C@@H](n2cnc(-c3cc(Cl)ccc3-n3cc(Cl)nn3)cc2=O)CCCCCNC1=O [Example 30, methyl N-{2-[(3S,11S)-11-{4-[5-chloro-2-(4-chloro-1H-1,2,3-triazol-1-yl)phenyl]-6-oxo-1,6-dihydropyrimidin-1-yl}-4-oxo-2,5-diazabicyclo[10.3.1]hexadeca-1(16),12,14-trien-3-yl]ethyl}carbamate trifluoromethyl acetate]
Ki (human Factor XIa): 515 nM
Ki (human plasma kallikrein): 5680 nM

COC(=O)NCC[C@@H]1Nc2cccc(c2)[C@@H](NC(=O)c2cnn(-c3cccc(Cl)c3F)c2Cl)CCCCCNC1=O [Example 31, methyl N-{2-[(3S,11S)-11-[5-chloro-1-(3-chloro-2-fluorophenyl)-1H-pyrazole-4-amido]-4-oxo-2,5-diazabicyclo[10.3.1]hexadeca-1(16),12,14-trien-3-yl]ethyl}carbamate, trifluoromethylacetate]
Ki (human Factor XIa): 1830 nM
Ki (human plasma kallikrein): 9490 nM

O=C1NCCCC[C@H](n2cnc(-c3c(-n4cc(Cl)nn4)ccc(Cl)c3F)cc2=O)c2cc(F)cc(c2)N2C(=O)CC[C@H]12 [Example 32, (6R,13S)-13-{4-[3-chloro-6-(4-chloro-1H-1,2,3-triazol-1-yl)-2-fluorophenyl]-6-oxo-1,6-dihydropyrimidin-1-yl}-16-fluoro-2,8-diazatricyclo[12.3.1.0^2,6]octadeca-1(18),14,16-triene-3,7-dione]
Ki (human Factor XIa): 77.5 nM
Ki (human plasma kallikrein): 5300 nM

O=C1NCCCCC[C@H](n2cnc(-c3cc(Cl)ccc3-n3cc(C(F)(F)F)nn3)cc2=O)c2cccc(c2)N2C(=O)CC[C@H]12 [Example 33, (6R,14S)-14-(4-{5-chloro-2-[4-(trifluoromethyl)-1H-1,2,3-triazol-1-yl]phenyl}-6-oxo-1,6-dihydropyrimidin-1-yl)-2,8-diazatricyclo[13.3.1.0^2,6]nonadeca-1(19),15,17-triene-3,7-dione]
Ki (human Factor XIa): 12 nM
Ki (human plasma kallikrein): 319 nM

O=C1NCCCCC[C@H](n2cnc(-c3c(-n4cc(Cl)nn4)ccc(Cl)c3F)cc2=O)c2cccc(c2)N2C(=O)CC[C@H]12 [Example 34, (6R,14S)-14-{4-[3-chloro-6-(4-chloro-1H-1,2,3-triazol-1-yl)-2-fluorophenyl]-6-oxo-1,6-dihydropyrimidin-1-yl}-2,8-diazatricyclo[13.3.1.0^2,6]nonadeca-1(19),15,17-triene-3,7-dione]
Ki (human Factor XIa): 6 nM
Ki (human plasma kallikrein): 134 nM
